The source of these data is patent US20260125360A1, “HERBICIDAL IMIDAZOLE COMPOUNDS” (SYNGENTA CROP PROTECTION AG, priority 2022, published 2026).

Structures are written as SMILES.

Common to all, as to format: in vivo
Details in all cases: 250 g/ha, evaluated after 13 days

The test system of assay [1] is Echinochloa crus-galli (ECHCG). The assay is described as follows: Post-emergence herbicide glasshouse test. The essentials:
(§1)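 Percentage plant damage, rated on a five-point scale (5=81-100%; 1=0-20%), is assessed 13 days after treatment. Sprays are applied at 250 g/ha unless otherwise stated, one day after sowing for pre-emergence and eight days after for post-emergence, from acetone/water (50:50) containing 0.5% Tween 20.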

The subject of assay [2] is Ipomoea hederacea (IPOHE). The experiment in a line: Post-emergence herbicide glasshouse test. The method, boiled down: as §1
Assay [3] relates to Amaranthus retoflexus (AMARE). The assay is described as follows: Post-emergence herbicide glasshouse test. The essentials:
as §1

The subject of assay [4] is Amaranthus palmeri (AMAPA). The experiment in a line: Post-emergence herbicide glasshouse test. The essentials: as §1
Assay [5] relates to Echinochloa crus-galli (ECHCG). The assay is described as follows: Pre-emergence herbicide glasshouse test. The method, boiled down:
as §1

Assay [6] concerns Ipomoea hederacea (IPOHE). The experiment in a line: Pre-emergence herbicide glasshouse test. The essentials:
as §1

Assay [7] deals with Amaranthus retoflexus (AMARE). The assay is described as follows: Pre-emergence herbicide glasshouse test. The method, boiled down:
as §1

Assay [8] has as its system Amaranthus palmeri (AMAPA). The experiment in a line: Pre-emergence herbicide glasshouse test. The essentials:
as §1

With `FC(F)(F)c1cn(Cc2cc(C3CC3)no2)c(-c2ccc(Cl)nc2)n1` [Compound 1.134], the “percentage damage caused to the plant, ECHCG (five-point scale)” value in assay [1] is 2 (2=21-40%); in assay [5] it was 3 (3=41-60%). The “percentage damage caused to the plant, IPOHE (five-point scale)” value in assay [2] and in assay [6] was 4 (4=61-80%) throughout. In addition, the “percentage damage caused to the plant, AMARE (five-point scale)” value in assay [3] and in assay [7] was 5 (5=81-100%) each time. Further, the “percentage damage caused to the plant, AMAPA (five-point scale)” value in assay [4] and in assay [8] was 5 (5=81-100%) in each case.

On to `CC(C)(C)c1csc(Cn2cc(C(F)(F)F)nc2-c2ccc(Cl)nc2)n1` [Compound 1.137], for which the “percentage damage caused to the plant, ECHCG (five-point scale)” value in assay [1] and in assay [5] was 1 (1=0-20%) each time. Moreover, the “percentage damage caused to the plant, IPOHE (five-point scale)” value in assay [2] and in assay [6] was 1 (1=0-20%) each time. Also, the “percentage damage caused to the plant, AMARE (five-point scale)” value in assay [3] and in assay [7] was 1 (1=0-20%) each time. Besides, the “percentage damage caused to the plant, AMAPA (five-point scale)” value in assay [4] and in assay [8] was 1 (1=0-20%) in each case.

In the case of `FC(F)(F)c1cn(Cc2nc(C3CC3)no2)c(-c2ccc(Cl)nc2)n1` [Compound 1.138], the “percentage damage caused to the plant, ECHCG (five-point scale)” value in assay [1] and in assay [5] was 1 (1=0-20%) each time. Further, the “percentage damage caused to the plant, IPOHE (five-point scale)” value in assay [2] and in assay [6] was 2 (2=21-40%) in each case. Further, the “percentage damage caused to the plant, AMARE (five-point scale)” value in assay [3] is on record as 1 (1=0-20%); in assay [7], 3 (3=41-60%). Further, the “percentage damage caused to the plant, AMAPA (five-point scale)” value is given as 1 (1=0-20%) in assay [4] and 3 (3=41-60%) in assay [8].

On to `CC(C)c1noc(Cn2cc(C(F)(F)F)nc2-c2ccc(Cl)nc2)n1` [Compound 1.139], for which the “percentage damage caused to the plant, ECHCG (five-point scale)” value in assay [1] and in assay [5] was 1 (1=0-20%) in each case. The “percentage damage caused to the plant, IPOHE (five-point scale)” value in assay [2] and in assay [6] was 1 (1=0-20%) each time. Moreover, the “percentage damage caused to the plant, AMARE (five-point scale)” value in assay [3] and in assay [7] was 1 (1=0-20%) each time. Moreover, the “percentage damage caused to the plant, AMAPA (five-point scale)” value in assay [4] and in assay [8] was 1 (1=0-20%) each time.

Take `CCCn1nnnc1Cn1cc(C(F)(F)F)nc1-c1ccc(Cl)nc1` [Compound 1.140]: the “percentage damage caused to the plant, ECHCG (five-point scale)” value in assay [1] and in assay [5] was 1 (1=0-20%) throughout. Further, the “percentage damage caused to the plant, IPOHE (five-point scale)” value in assay [2] and in assay [6] was 1 (1=0-20%) in each case. Also, the “percentage damage caused to the plant, AMARE (five-point scale)” value in assay [3] and in assay [7] was 1 (1=0-20%) throughout. Further, the “percentage damage caused to the plant, AMAPA (five-point scale)” value in assay [4] and in assay [8] was 1 (1=0-20%) throughout.

For `Cc1noc(C)c1Cn1cc(C(F)(F)F)nc1-c1ccc(Cl)nc1` [Compound 1.141], the “percentage damage caused to the plant, ECHCG (five-point scale)” value in assay [1] and in assay [5] was 1 (1=0-20%) in each case. The “percentage damage caused to the plant, IPOHE (five-point scale)” value in assay [2] and in assay [6] was 1 (1=0-20%) each time. The “percentage damage caused to the plant, AMARE (five-point scale)” value in assay [3] and in assay [7] was 1 (1=0-20%) each time. In addition, the “percentage damage caused to the plant, AMAPA (five-point scale)” value in assay [4] and in assay [8] was 1 (1=0-20%) in each case.

Consider `CN(C)S(=O)(=O)c1cc(Cn2cc(C(F)(F)F)nc2-c2ccc(Cl)nc2)co1` [Compound 1.144], for which the “percentage damage caused to the plant, ECHCG (five-point scale)” value in assay [1] and in assay [5] was 1 (1=0-20%) each time. Moreover, the “percentage damage caused to the plant, IPOHE (five-point scale)” value in assay [2] and in assay [6] was 1 (1=0-20%) in each case. Also, the “percentage damage caused to the plant, AMARE (five-point scale)” value in assay [3] and in assay [7] was 1 (1=0-20%) in each case. For the same molecule, the “percentage damage caused to the plant, AMAPA (five-point scale)” value in assay [4] and in assay [8] was 1 (1=0-20%) each time.

With `Cc1cc(Cn2cc(C(F)(F)F)nc2-c2ccc(Cl)nc2)n(C)n1` [Compound 1.147], the “percentage damage caused to the plant, ECHCG (five-point scale)” value in assay [1] and in assay [5] was 1 (1=0-20%) throughout. The “percentage damage caused to the plant, IPOHE (five-point scale)” value in assay [2] is recorded as 3 (3=41-60%); in assay [6], 4 (4=61-80%). Further, the “percentage damage caused to the plant, AMARE (five-point scale)” value in assay [3] is 3 (3=41-60%); in assay [7], 2 (2=21-40%). For the same molecule, the “percentage damage caused to the plant, AMAPA (five-point scale)” value in assay [4] and in assay [8] was 2 (2=21-40%) each time.

In the case of `FC(F)(F)c1cn(Cc2sc(Cl)nc2Cl)c(-c2ccc(Cl)nc2)n1` [Compound 1.148], the “percentage damage caused to the plant, ECHCG (five-point scale)” value in assay [1] and in assay [5] was 1 (1=0-20%) each time. The “percentage damage caused to the plant, IPOHE (five-point scale)” value in assay [2] and in assay [6] was 1 (1=0-20%) throughout. For the same molecule, the “percentage damage caused to the plant, AMARE (five-point scale)” value in assay [3] and in assay [7] was 1 (1=0-20%) throughout. Besides, the “percentage damage caused to the plant, AMAPA (five-point scale)” value in assay [4] and in assay [8] was 1 (1=0-20%) in each case.

In the case of `FC(F)(F)c1cn(Cc2cnc(Cl)s2)c(-c2ccc(Cl)nc2)n1` [Compound 1.150], the “percentage damage caused to the plant, ECHCG (five-point scale)” value in assay [1] and in assay [5] was 1 (1=0-20%) each time. Further, the “percentage damage caused to the plant, IPOHE (five-point scale)” value in assay [2] and in assay [6] was 1 (1=0-20%) each time. The “percentage damage caused to the plant, AMARE (five-point scale)” value is 1 (1=0-20%) in assay [3] and 2 (2=21-40%) in assay [7]. Moreover, the results for the “percentage damage caused to the plant, AMAPA (five-point scale)” value in assay [4] and in assay [8] were 1 (1=0-20%) and 2 (2=21-40%), respectively.

As to `Cc1noc(Cn2cc(C(F)(F)F)nc2-c2cnc(F)c(Cl)c2)n1` [Compound 1.151], the “percentage damage caused to the plant, ECHCG (five-point scale)” value in assay [1] and in assay [5] was 3 (3=41-60%) each time. Moreover, the results for the “percentage damage caused to the plant, IPOHE (five-point scale)” value in assay [2] and in assay [6] were 4 (4=61-80%) and 5 (5=81-100%), respectively. Also, the “percentage damage caused to the plant, AMARE (five-point scale)” value in assay [3] and in assay [7] was 5 (5=81-100%) throughout. Further, the “percentage damage caused to the plant, AMAPA (five-point scale)” value in assay [4] and in assay [8] was 5 (5=81-100%) in each case.

`Fc1ncc(-c2nc(C(F)(F)F)cn2Cc2ccc(Cl)s2)cc1Cl` [Compound 1.152]: the “percentage damage caused to the plant, ECHCG (five-point scale)” value in assay [1] was 1 (1=0-20%); in assay [5] it was 3 (3=41-60%). Also, the “percentage damage caused to the plant, IPOHE (five-point scale)” value in assay [2] is reported as 2 (2=21-40%); in assay [6], 1 (1=0-20%). The “percentage damage caused to the plant, AMARE (five-point scale)” value in assay [3] and in assay [7] was 5 (5=81-100%) throughout. Moreover, the “percentage damage caused to the plant, AMAPA (five-point scale)” value in assay [4] and in assay [8] was 5 (5=81-100%) in each case.

In the case of `Cn1ccc(Cn2cc(C(F)(F)F)nc2-c2cnc(F)c(Cl)c2)n1` [Compound 1.153], the “percentage damage caused to the plant, ECHCG (five-point scale)” value in assay [1] and in assay [5] was 5 (5=81-100%) in each case. For the same molecule, the results for the “percentage damage caused to the plant, IPOHE (five-point scale)” value in assay [2] and in assay [6] were 4 (4=61-80%) and 5 (5=81-100%), respectively. Also, the “percentage damage caused to the plant, AMARE (five-point scale)” value in assay [3] and in assay [7] was 5 (5=81-100%) in each case. Also, the “percentage damage caused to the plant, AMAPA (five-point scale)” value in assay [4] and in assay [8] was 5 (5=81-100%) throughout.

For the molecule `Cc1cc(Cn2cc(C(F)(F)F)nc2-c2cnc(F)c(Cl)c2)ns1` [Compound 1.154], the “percentage damage caused to the plant, ECHCG (five-point scale)” value in assay [1] and in assay [5] was 5 (5=81-100%) in each case. The entries for the “percentage damage caused to the plant, IPOHE (five-point scale)” value in assay [2] and in assay [6] were 4 (4=61-80%) and 5 (5=81-100%), respectively. The “percentage damage caused to the plant, AMARE (five-point scale)” value in assay [3] and in assay [7] was 5 (5=81-100%) throughout. The “percentage damage caused to the plant, AMAPA (five-point scale)” value in assay [4] and in assay [8] was 5 (5=81-100%) throughout.
